Data on 19 compounds can be found in patent US12577206B2 (BRISTOL-MYERS SQUIBB COMPANY, priority 2020, dated 2026).

The target in one assay is T1, human FPR1 (Homo sapiens, UniProt P21462).
T1 sequence (P21462 1-350): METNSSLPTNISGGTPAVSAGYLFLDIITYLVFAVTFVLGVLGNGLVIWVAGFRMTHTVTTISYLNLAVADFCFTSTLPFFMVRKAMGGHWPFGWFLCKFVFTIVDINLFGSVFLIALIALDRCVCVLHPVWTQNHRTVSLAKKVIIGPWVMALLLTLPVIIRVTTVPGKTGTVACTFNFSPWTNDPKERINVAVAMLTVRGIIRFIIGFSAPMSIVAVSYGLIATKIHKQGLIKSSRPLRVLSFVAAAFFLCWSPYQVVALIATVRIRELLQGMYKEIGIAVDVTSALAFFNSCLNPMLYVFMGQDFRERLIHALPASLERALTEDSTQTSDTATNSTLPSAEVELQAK
As to the kind of experiment: FPR1 cyclic adenosine monophosphate (cAMP) assay. The class given is cell-based. The note with it: CHO cells overexpressing human FPR1; forskolin 10 μM; inhibition of cAMP production; HTRF; read-out: hFPR1 cAMP2 EC50. A digest of the protocol: (§1)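 Gi-coupled activity is read as suppression of forskolin-stimulated cAMP (10 μM final for FPR1, 5 μM final for FPR2; IBMX 200 μM final) in recombinant CHO cells, 30 min incubation at rt, HTRF detection.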
(In general: Changes in cAMP serve as a functional read-out for many G protein-coupled receptors.)

Another assay concerns the target T2, human FPR2 (Homo sapiens, UniProt P25090).
T2 sequence (P25090 1-351): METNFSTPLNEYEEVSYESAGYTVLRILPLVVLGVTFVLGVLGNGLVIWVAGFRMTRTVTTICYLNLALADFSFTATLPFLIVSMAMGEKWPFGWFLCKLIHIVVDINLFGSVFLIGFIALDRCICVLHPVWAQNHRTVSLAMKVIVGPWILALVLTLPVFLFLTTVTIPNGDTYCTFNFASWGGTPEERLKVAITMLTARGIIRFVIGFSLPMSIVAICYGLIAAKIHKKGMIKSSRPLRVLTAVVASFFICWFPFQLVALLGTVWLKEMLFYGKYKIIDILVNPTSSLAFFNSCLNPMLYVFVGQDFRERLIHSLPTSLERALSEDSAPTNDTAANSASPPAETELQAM
The assay can be described thus: FPR2 cyclic adenosine monophosphate (cAMP) assay. Format: cell-based. The note with it: CHO cells overexpressing human FPR2; forskolin 5 μM; inhibition of cAMP production; HTRF; read-out: hFPR2 cAMP2 EC50. A digest of the protocol:
as §1

Structures are written as SMILES. Where only a bound is given, the exact number is not on record here.

In the case of `COc1cc(F)c(-c2c(NC(=O)c3ccc(OC(F)F)cc3)c(=O)n(-c3cc(C4CCN(C)CC4)cc(C)n3)n2C)c(F)c1` [Example 324, N-(5-(2,6-Difluoro-4-methoxyphenyl)-1-methyl-2-(6-methyl-4-(1-methylpiperidin-4-yl)pyridin-2-yl)-3-oxo-2,3-dihydro-1H-pyrazol-4-yl)-4-(difluoromethoxy)benzamide], the EC50 – broadly, the concentration at which the effect is half-maximal – at human FPR1 was more than 10000 nM; at human FPR2, 5 nM.
Regarding `COc1cc(F)c(-c2c(NC(=O)c3ccc(OC(F)F)cc3)c(=O)n(-c3cc(Cl)cc(N4C[C@H]5C[C@@H]4CN5)c3)n2C)c(F)c1` [Example 149, N-(2-{3-chloro-5-[(1R,4R)-2,5-diazabicyclo[2.2.1]heptan-2-yl]phenyl}-5-(2,6-difluoro-4-methoxyphenyl)-1-methyl-3-oxo-2,3-dihydro-1H-pyrazol-4-yl)-4-(difluoromethoxy)benzamide], the EC50 on human FPR1 came out at 4700 nM; on human FPR2, 6 nM.
Regarding `COc1cc(N2C[C@H]3C[C@@H]2CN3C)nc(-n2c(=O)c(NC(=O)c3ccc(OC(F)F)cc3)c(-c3c(F)cc(OC)cc3F)n2C)c1` [Example 354, N-(5-(2,6-Difluoro-4-methoxyphenyl)-2-(4-methoxy-6-((1R,4R)-5-methyl-2,5-diazabicyclo[2.2.1]heptan-2-yl)pyridin-2-yl)-1-methyl-3-oxo-2,3-dihydro-1H-pyrazol-4-yl)-4-(difluoromethoxy)benzamide], the EC50 is more than 10000 nM on human FPR1 and 2 nM on human FPR2.
`COc1cc(F)c(-c2c(NC(=O)c3ccc(OC(F)F)cc3)c(=O)n(-c3nc(NC(C)(C)C)ccc3C(F)(F)F)n2C)c(F)c1` [Example 265, N-{2-[6-(tert-butylamino)-3-(trifluoromethyl)pyridin-2-yl]-5-(2,6-difluoro-4-methoxyphenyl)-1-methyl-3-oxo-2,3-dihydro-1H-pyrazol-4-yl}-4-(difluoromethoxy)benzamide]: the EC50 at human FPR1 is more than 10000 nM; at human FPR2 it was 2 nM.
For `CNC(=O)CN(C)c1ccc(C(F)(F)F)c(-n2c(=O)c(NC(=O)c3ccc(OC(F)F)cc3)c(-c3c(F)cc(OC)cc3F)n2C)n1` [Example 260, N-[5-(2,6-difluoro-4-methoxyphenyl)-1-methyl-2-(6-{methyl[(methylcarbamoyl)methyl]amino}-3-(trifluoromethyl)pyridin-2-yl)-3-oxo-2,3-dihydro-1H-pyrazol-4-yl]-4-(difluoromethoxy)benzamide] the same measures were more than 10000 nM and 10 nM.
The corresponding values for `COc1cc(F)c(-c2c(NC(=O)c3ccc(OC(F)F)cc3)c(=O)n(-c3nc(C4CCN(S(C)(=O)=O)CC4)ccc3C(F)(F)F)n2C)c(F)c1` [Example 319] are more than 10000 nM and 2 nM.
For `COc1cc(F)c(-c2c(NC(=O)c3ccc(OC(F)F)cc3)c(=O)n(-c3cnc4ccccc4n3)n2C)c(F)c1` [Example 64, N-[5-(2,6-difluoro-4-methoxyphenyl)-1-methyl-3-oxo-2-(quinoxalin-2-yl)-2,3-dihydro-1H-pyrazol-4-yl]-4-(difluoromethoxy)benzamide] the same measures were 800 nM and 11 nM.
For the compound `COc1cc(OCCCO)nc(-n2c(=O)c(NC(=O)c3ccc(OC(F)F)cc3)c(-c3c(F)cc(OC)cc3F)n2C)c1` [Example 329, N-(5-(2,6-Difluoro-4-methoxyphenyl)-2-(6-(3-hydroxypropoxy)-4-methoxypyridin-2-yl)-1-methyl-3-oxo-2,3-dihydro-1H-pyrazol-4-yl)-4-(difluoromethoxy)benzamide], the values for the EC50 on human FPR1 and at human FPR2 were more than 10000 nM and 4 nM, respectively.
For `COc1cc(OCC(F)(F)F)nc(-n2c(=O)c(NC(=O)c3ccc(OC(F)F)cc3)c(-c3c(F)cc(OC)cc3F)n2C)c1` [Example 389, N-(5-(2,6-Difluoro-4-methoxyphenyl)-2-(4-methoxy-6-(2,2,2-trifluoroethoxy)pyridin-2-yl)-1-methyl-3-oxo-2,3-dihydro-1H-pyrazol-4-yl)-4-(difluoromethoxy)benzamide] the same measures were 4500 nM and 6 nM.
On to `COCc1ccc(C(F)(F)F)c(-n2c(=O)c(NC(=O)c3ccc(OC(F)F)cc3)c(-c3c(F)cc(OC)cc3F)n2C)n1` [Example 196, N-[5-(2,6-difluoro-4-methoxyphenyl)-2-[6-(methoxymethyl)-3-(trifluoromethyl)pyridin-2-yl]-1-methyl-3-oxo-2,3-dihydro-1H-pyrazol-4-yl]-4-(difluoromethoxy)benzamide], for which the EC50 was more than 10000 nM on human FPR1 and 9 nM on human FPR2.
`COc1cc(F)c(-c2c(NC(=O)c3ccc(C4CC4)cc3)c(=O)n(-c3ccc(C4CC4)cn3)n2C)c(F)c1` [Example 53, 4-cyclopropyl-N-[2-(5-cyclopropylpyridin-2-yl)-5-(2,6-difluoro-4-methoxyphenyl)-1-methyl-3-oxo-2,3-dihydro-1H-pyrazol-4-yl]benzamide]: the half-maximal effective concentration (EC50) on human FPR1 is 610 nM; on human FPR2, 59 nM.
The corresponding values for `COc1cc(F)c(-c2c(NC(=O)c3ccc(OC(F)F)cc3)c(=O)n(-c3nc(C4CC4)ccc3C#N)n2C)c(F)c1` [Example 161, N-[2-(3-cyano-6-cyclopropylpyridin-2-yl)-5-(2,6-difluoro-4-methoxyphenyl)-1-methyl-3-oxo-2,3-dihydro-1H-pyrazol-4-yl]-4-(difluoromethoxy)benzamide] are more than 10000 nM and 4 nM.
`COc1cc(F)c(-c2c(NC(=O)c3ccc(OC(F)(F)F)cc3)c(=O)n(-c3c(F)cccc3F)n2C)c(F)c1` [Example 26, N-[5-(2,6-difluoro-4-methoxyphenyl)-2-(2,6-difluorophenyl)-1-methyl-3-oxo-2,3-dihydro-1H-pyrazol-4-yl]-4-(trifluoromethoxy)benzamide]: the EC50 at human FPR1 amounted to 1100 nM; on human FPR2, 9 nM.
As to `COc1cc(-n2c(=O)c(NC(=O)c3ccc(OC(F)F)cc3)c(-c3c(F)cc(OC)cc3F)n2C)nc(C(C)(C)O)c1` [Example 89, N-[5-(2,6-difluoro-4-methoxyphenyl)-2-[6-(2-hydroxypropan-2-yl)-4-methoxypyridin-2-yl]-1-methyl-3-oxo-2,3-dihydro-1H-pyrazol-4-yl]-4-(difluoromethoxy)benzamide], the results for the EC50 at human FPR1 and at human FPR2 were 900 nM and 3 nM, respectively.
`COCCOc1ccc(C(F)(F)F)c(-n2c(=O)c(NC(=O)c3ccc(OC(F)F)cc3)c(-c3c(F)cc(OC)cc3F)n2C)n1` [Example 278, N-[5-(2,6-difluoro-4-methoxyphenyl)-2-[6-(2-methoxyethoxy)-3-(trifluoromethyl)pyridin-2-yl]-1-methyl-3-oxo-2,3-dihydro-1H-pyrazol-4-yl]-4-(difluoromethoxy)benzamide]: the concentration for a half-maximal effect (EC50) on human FPR1 was more than 10000 nM; at human FPR2, 2 nM.
For `COc1cc(N2C[C@@H](C)N(C)[C@@H](C)C2)nc(-n2c(=O)c(NC(=O)c3ccc(OC(F)F)cc3)c(-c3c(F)cc(OC)cc3F)n2C)c1` [Example 93, N-[5-(2,6-difluoro-4-methoxyphenyl)-2-{4-methoxy-6-[(3R,5S)-3,4,5-trimethylpiperazin-1-yl]pyridin-2-yl}-1-methyl-3-oxo-2,3-dihydro-1H-pyrazol-4-yl]-4-(difluoromethoxy)benzamide], the EC50 on human FPR1 is 1800 nM; at human FPR2, 2 nM.
For `CNc1ccc(Cl)nc1-n1c(=O)c(NC(=O)c2ccc(OC(F)F)cc2)c(-c2c(F)cc(OC)cc2F)n1C` [Example 215, N-{2-[6-chloro-3-(methylamino)pyridin-2-yl]-5-(2,6-difluoro-4-methoxyphenyl)-1-methyl-3-oxo-2,3-dihydro-1H-pyrazol-4-yl}-4-(difluoromethoxy)benzamide] the same measures were more than 10000 nM and 5 nM.
For `COc1cc(F)c(-c2c(NC(=O)c3ccc(OC(F)F)cc3)c(=O)n(-c3nc(N4C5CCC4CN(C)C5)ccc3C(F)(F)F)n2C)c(F)c1` [Example 137, N-[5-(2,6-difluoro-4-methoxyphenyl)-1-methyl-2-(6-{3-methyl-3,8-diazabicyclo[3.2.1]octan-8-yl}-3-(trifluoromethyl)pyridin-2-yl)-3-oxo-2,3-dihydro-1H-pyrazol-4-yl]-4-(difluoromethoxy)benzamide] the same measures were 7100 nM and 16 nM.
For `COc1cc(OCCO)nc(-n2c(=O)c(NC(=O)c3ccc(OC(F)F)cc3)c(-c3c(F)cc(OC)cc3F)n2C)c1` [Example 332, N-(5-(2,6-Difluoro-4-methoxyphenyl)-2-(6-(2-hydroxyethoxy)-4-methoxypyridin-2-yl)-1-methyl-3-oxo-2,3-dihydro-1H-pyrazol-4-yl)-4-(difluoromethoxy)benzamide] the same measures were more than 10000 nM and 3 nM.
